Assay results reported in patent US10508120B2, “TYK2 inhibitors and uses thereof” (Nimbus Lakshmi, Inc., priority 2017, dated 2019).

Assays:
[1] = target: human TYK2 (JH2domain-pseudokinase) (Homo sapiens (Human), UniProt P29597); assay: TYK2 JH2 Domain Binding Assay (KINOMEscan)
Summary of the method: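 Displacement of a DNA-tagged TYK2 JH2 fusion (human, aa G556–D888, HEK293 extract, <0.1 nM) from ligand-coated beads over 1 h at RT; binding buffer PBS/0.05% Tween 20/10 mM DTT/0.1% BSA.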

[2] = target: Tyk2 kinase domain (DH1) (Homo sapiens (Human), UniProt P29597); assay: Tyk2 Radioactive Kinase Assay; format: biochemical; settings: compound at 10 μM, ATP 10 μM; for inhibition at 10 µM: read-out: Tyk2 JH1% Inhibition @ 10 μM
Summary of the method: (§1)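 Single-point screen: 10 μM test compound, radioactive kinase read-out, percent inhibition reported for each kinase domain.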

[3] = target: JAK2 kinase domain (JH1) (Homo sapiens (Human), UniProt O60674); assay: JAK2 Radioactive Kinase Assay; format: biochemical; settings: compound at 10 μM, ATP 10 μM; for inhibition at 10 µM: read-out: JAK2 JH1% Inhibition @ 10 μM
Summary of the method: as §1

JAK2 kinase domain (JH1), sequence (O60674 849-1124): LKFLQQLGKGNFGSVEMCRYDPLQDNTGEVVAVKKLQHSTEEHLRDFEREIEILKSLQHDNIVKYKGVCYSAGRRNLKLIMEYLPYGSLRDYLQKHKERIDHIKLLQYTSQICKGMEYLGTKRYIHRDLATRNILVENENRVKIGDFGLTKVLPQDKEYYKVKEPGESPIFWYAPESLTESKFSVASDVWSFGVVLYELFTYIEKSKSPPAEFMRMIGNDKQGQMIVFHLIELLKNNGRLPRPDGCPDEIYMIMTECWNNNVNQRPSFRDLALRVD
Tyk2 kinase domain (DH1), sequence (P29597 897-1176): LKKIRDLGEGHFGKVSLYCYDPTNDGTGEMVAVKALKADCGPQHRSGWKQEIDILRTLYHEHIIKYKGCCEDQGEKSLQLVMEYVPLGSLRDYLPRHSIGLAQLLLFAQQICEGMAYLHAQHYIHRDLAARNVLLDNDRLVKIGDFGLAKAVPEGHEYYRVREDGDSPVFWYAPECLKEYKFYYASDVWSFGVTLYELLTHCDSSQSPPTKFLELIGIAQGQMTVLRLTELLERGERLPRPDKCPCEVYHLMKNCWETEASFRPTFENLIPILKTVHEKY
human TYK2 (JH2domain-pseudokinase), sequence (P29597 556-888): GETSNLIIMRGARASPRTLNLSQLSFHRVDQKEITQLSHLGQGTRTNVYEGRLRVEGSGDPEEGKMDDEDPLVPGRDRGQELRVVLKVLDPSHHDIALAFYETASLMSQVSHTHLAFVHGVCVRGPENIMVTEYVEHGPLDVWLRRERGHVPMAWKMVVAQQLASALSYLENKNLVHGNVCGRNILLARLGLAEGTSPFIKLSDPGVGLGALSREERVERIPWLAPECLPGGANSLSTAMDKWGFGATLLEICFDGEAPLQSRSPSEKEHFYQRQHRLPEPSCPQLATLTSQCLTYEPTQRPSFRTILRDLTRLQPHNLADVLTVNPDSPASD

Compound | Kd [1] [nM] | inhibition at 10 µM [2] [%] | inhibition at 10 µM [3] [%] | Tyk2 JH1% Inhibition @ 10 μM [2] | JAK2 JH1% Inhibition @ 10 μM [3]
CNc1cc(Nc2cccn(C3=NC(C)(C)CS3)c2=O)nc2c(C(=O)NC3CCC3)cnn12 [I-503] | 0.2 to 1 | < 50 | < 50 |  | 
CNc1cc(Nc2cccn(-c3nn(C)c(C)c3C)c2=O)nc2c(C(=O)NC3CC3)cnn12 [I-504] | 0.2 to 1 | < 50 | < 50 |  | 
CNc1cc(Nc2cccn(-c3nn(C)c(C)c3C)c2=O)nc2c(C(=O)N[C@@H]3C[C@@H]3F)cnn12 [I-505] | 0.2 to 1 | < 50 | < 50 |  | 
CNc1cc(Nc2cccn(C3CCCN(C)C3)c2=O)nc2c(C(=O)N[C@@H]3C[C@@H]3F)cnn12 (stereo partly drawn) [I-506] | < 0.2 | < 50 | < 50 |  | 
CNc1cc(Nc2cccn([C@@H]3CCC[C@@H]3OC)c2=O)nc2c(C(=O)N[C@@H]3C[C@@H]3F)cnn12 [I-507] | 0.2 to 1 | < 50 | < 50 |  | 
CNc1cc(Nc2cccc(C3CCCOC3)n2)nc2c(C(=O)NC3CC3)cnn12 (stereo not drawn) [I-508] | 0.2 to 1 | < 50 | < 50 |  | 
CNc1cc(Nc2cccn(C3CCOCC3)c2=O)nc2c(C(=O)NCC(C)(C)CO)cnn12 [I-509] | < 0.2 | < 50 | < 50 |  | 
CNc1cc(Nc2cccn([C@H]3CCCN(C)C3)c2=O)nc2c(C(=O)NC3CC3)cnn12 [I-511] | 0.2 to 1 | < 50 | < 50 |  | 
CNc1cc(Nc2cccn([C@@H]3CCCN(C)C3)c2=O)nc2c(C(=O)NC3CC3)cnn12 [I-512] | < 0.2 | < 50 | < 50 |  | 
CNc1cc(Nc2cccn(CCOC3CC3)c2=O)nc2c(C(=O)N[C@@H]3CC[C@H]3O)cnn12 [I-513] | < 0.2 |  |  | A (percent inhibition at 10 μM lower than 50) | A (percent inhibition at 10 μM lower than 50)
CNc1cc(Nc2cccn(CCOC3CC3)c2=O)nc2c(C(=O)N[C@H]3CC[C@@H]3O)cnn12 [I-514, 5-((1-(2-cyclopropoxyethyl)-2-oxo-1,2-dihydropyridin-3-yl)amino)-N-((1 S,2S)-2-hydroxycyclobutyl)-7-(methylamino)pyrazolo[1,5-a]pyrimidine-3-carboxamide] | 1 to 10 | < 50 | < 50 |  | 
CNc1cc(Nc2cccn(CCOC3CC3)c2=O)nc2c(C(=O)N[C@@H]3CC[C@@H]3O)cnn12 [I-516] | 1 to 10 |  |  | A (percent inhibition at 10 μM lower than 50) | A (percent inhibition at 10 μM lower than 50)
CNc1cc(-c2nn([C@@H]3CCOC3)c3ncccc23)nc2c(C(=O)N[C@@H]3C[C@@H]3F)cnn12 [I-517] | 0.2 to 1 | < 50 | < 50 |  | 
CNc1cc(-c2nn([C@H]3CCOC3)c3ncccc23)nc2c(C(=O)N[C@@H]3C[C@@H]3F)cnn12 [I-518] | 0.2 to 1 | < 50 | < 50 |  | 
CNc1cc(Nc2cccn(C3=NC(C)(C)CS3)c2=O)nc2c(C(=O)N[C@@H]3C[C@@H]3F)cnn12 [I-526] | 0.2 to 1 | < 50 | < 50 |  | 
CNc1cc(Nc2cccn(C3CCOCC3)c2=O)nc2c(C(=O)N[C@H]3CC[C@H]3O)cnn12 [I-527] | 0.2 to 1 | < 50 | < 50 |  | 
CNc1cc(Nc2cccn(C3CCOCC3)c2=O)nc2c(C(=O)N[C@H]3CC[C@@H]3O)cnn12 [I-528] | < 0.2 | < 50 | < 50 |  | 
CNc1cc(Nc2cccc(C3CCCCO3)n2)nc2c(C(=O)NCC3(CO)CC3)cnn12 (stereo not drawn) [I-530] | 0.2 to 1 | < 50 | < 50 |  | 
CNc1cc(Nc2ccc3c(n2)OCCO3)nc2c(C(=O)NC3CC3)cnn12 [I-531] | 0.2 to 1 | < 50 | < 50 |  | 
CNc1cc(Nc2ccc3c(n2)OCCO3)nc2c(C(=O)N[C@H]3C[C@H]3F)cnn12 [I-532] | 0.2 to 1 | < 50 | < 50 |  | 
CNc1cc(Nc2cc(F)cn([C@@H]3CCCOC3)c2=O)nc2c(C(=O)NC3CC3)cnn12 [I-533] | < 0.2 | < 50 | < 50 |  | 
CNc1cc(Nc2cc(F)cn([C@H]3CCCOC3)c2=O)nc2c(C(=O)NC3CC3)cnn12 [I-534] | 0.2 to 1 | < 50 | < 50 |  | 
CNc1cc(Nc2cccn([C@H]3CCCN(C)C3)c2=O)nc2c(C(=O)N[C@@H]3C[C@@H]3F)cnn12 [I-535] | < 0.2 | < 50 | < 50 |  | 
